This is an account of results in publication PMC10818749, “Toxicity Studies of Cardiac-Targeting Peptide Reveal a Robust Safety Profile” (Pharmaceutics, 2024).

The target in data set [1] is CHO-hERG (Homo sapiens, UniProt Q12809).
Data set [2] relates to GABAA. Kind of data set: GABAA ion channel assay. It is filed as cell-based. To be noted: FLIPR Tetra, up to 30 µM, read-out: RC50 (the source's name). The protocol: (§1) Ion Channel Assays: Cell lines were grown, plated, and loaded with 1× loading buffer containing 1× dye and 2.5 mM freshly prepared probenecid. Assays were performed, and activity was measured using a FLIPR Tetra. Percent of activation and percent of inhibition were calculated to determine agonist and antagonist activity, respectively. […]
in complementation with EA generating a unit of active β-gal and based assay for the detection of dopamine, norepinephrine or sero-production of a chemiluminescent signal upon the addition of Path- tonin transporter activity in cells expressing these transporters. The Hunter detection reagents. kit employs a fluorescent substrate that mimics the biogenic amine neurotransmitters that are taken into the cell through these specific transporters, resulting in increased intracellular fluorescence inten-sity. […]
KINOMEscan® Assay fluorescence for improved signal/noise ratio. […]
Compounds that bind the kinase active site and directly (sterically) be monitored within a single experiment. or indirectly (allosterically) prevent kinase binding to the immobi-lized ligand, will reduce the amount of kinase captured on the solid Calcium Assay […]
kinase have no effect on the amount of kinase captured on the of changes in intracellular calcium. […] In a similar manner, dissociation con- an increase of dye fluorescence. […]

The target in data set [3] is hERG (Homo sapiens, UniProt Q12809). Kind of data set: in vitro. It is filed as cell-based. As to conditions: up to 30 µM. As for the experimental part:
as §1
The FLIPR Potassium Assay Kit from Molecular Devices is used. It exploits the permeability of thallium ions (Tl+) through both voltage-and ligand-gated potassium (K+) channels. A novel, highly-sensiti ve
Tl+ indicator dye is utilized which produces a bright fluorescent signal upon the binding to Tl+ conducted through potassium chan-nels. […]
KINOMEscan® Assay fluorescence for improved signal/noise ratio.
The KINOMEscan screening platform employs a novel and propri- Membrane Potential Assay etary active site-directed competition binding assay to quantitatively The FLIPR® Membrane Potential Assay Kit is used which utilizes a pro-measure interactions between test compounds and the kinases. prietary fluorescent indicator dye in combination with a quencher to This robust and reliable assay technology affords investigators the reflect real-time membrane potential changes associated with ion ability to extensively annotate compounds with accurate, precise channel activation and ion transporter proteins. […]

Data set [4] has as its target HEK-Kv4.3/KChIP2 (Homo sapiens, UniProt Q9NS61+Q9UK17). As to conditions: CTP 0.1 to 30 µM; HEK cells; step to 40mV; 0.1% Pluronic F-68.
Data set [5] concerns the target HEK-Nav1.5 (Peak) (Homo sapiens, UniProt Q14524). Briefly: hNav1.5 (Peak) Sodium Channel Assay - Qube APC. To be noted: CTP 0.1 to 30 µM; HEK cells; peak current, step to -15mV; 0.1% Pluronic F-68.
Data set [6] concerns the target CHO-KCNQ1/minK (Homo sapiens, UniProt P15382+P51787). To be noted: CTP 0.1 to 30 µM; CHO cells; step to +60mV; 0.1% Pluronic F-68.

Ends that are not written are not given here. Where only a bound is given, the exact number is not on record here.

Sequence of hERG (Q12809 whole entry): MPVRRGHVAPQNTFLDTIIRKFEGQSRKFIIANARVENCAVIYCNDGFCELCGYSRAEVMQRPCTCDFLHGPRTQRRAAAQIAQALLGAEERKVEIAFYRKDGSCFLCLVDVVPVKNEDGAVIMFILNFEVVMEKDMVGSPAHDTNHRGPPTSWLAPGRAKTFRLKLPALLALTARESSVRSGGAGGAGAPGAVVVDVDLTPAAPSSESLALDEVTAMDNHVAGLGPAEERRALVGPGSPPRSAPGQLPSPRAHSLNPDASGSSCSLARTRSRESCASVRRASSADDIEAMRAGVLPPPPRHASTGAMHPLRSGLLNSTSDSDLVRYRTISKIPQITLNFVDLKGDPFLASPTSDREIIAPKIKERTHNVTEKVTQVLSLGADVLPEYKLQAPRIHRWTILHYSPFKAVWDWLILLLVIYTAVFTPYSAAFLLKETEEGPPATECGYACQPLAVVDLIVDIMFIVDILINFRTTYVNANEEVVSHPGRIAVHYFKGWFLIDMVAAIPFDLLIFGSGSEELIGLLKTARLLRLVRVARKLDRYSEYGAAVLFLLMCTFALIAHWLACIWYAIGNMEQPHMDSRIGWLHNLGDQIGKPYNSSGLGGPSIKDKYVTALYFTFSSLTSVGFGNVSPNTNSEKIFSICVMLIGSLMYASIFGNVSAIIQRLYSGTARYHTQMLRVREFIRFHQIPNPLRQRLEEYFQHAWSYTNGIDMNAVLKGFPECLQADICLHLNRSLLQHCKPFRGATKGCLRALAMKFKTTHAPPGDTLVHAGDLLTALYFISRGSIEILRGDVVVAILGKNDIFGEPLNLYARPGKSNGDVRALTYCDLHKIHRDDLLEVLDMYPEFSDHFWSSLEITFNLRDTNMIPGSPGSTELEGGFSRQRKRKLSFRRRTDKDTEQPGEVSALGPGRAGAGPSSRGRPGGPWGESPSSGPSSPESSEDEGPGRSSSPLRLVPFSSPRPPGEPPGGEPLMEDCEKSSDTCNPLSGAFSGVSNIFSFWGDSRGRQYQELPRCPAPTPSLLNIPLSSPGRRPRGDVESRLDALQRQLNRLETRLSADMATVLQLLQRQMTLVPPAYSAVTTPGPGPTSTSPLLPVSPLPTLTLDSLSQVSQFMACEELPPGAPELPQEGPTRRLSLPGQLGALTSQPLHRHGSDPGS
Sequence of CHO-hERG (Q12809 whole entry): as above
Sequence of HEK-Nav1.5 (Peak) (Q14524 whole entry): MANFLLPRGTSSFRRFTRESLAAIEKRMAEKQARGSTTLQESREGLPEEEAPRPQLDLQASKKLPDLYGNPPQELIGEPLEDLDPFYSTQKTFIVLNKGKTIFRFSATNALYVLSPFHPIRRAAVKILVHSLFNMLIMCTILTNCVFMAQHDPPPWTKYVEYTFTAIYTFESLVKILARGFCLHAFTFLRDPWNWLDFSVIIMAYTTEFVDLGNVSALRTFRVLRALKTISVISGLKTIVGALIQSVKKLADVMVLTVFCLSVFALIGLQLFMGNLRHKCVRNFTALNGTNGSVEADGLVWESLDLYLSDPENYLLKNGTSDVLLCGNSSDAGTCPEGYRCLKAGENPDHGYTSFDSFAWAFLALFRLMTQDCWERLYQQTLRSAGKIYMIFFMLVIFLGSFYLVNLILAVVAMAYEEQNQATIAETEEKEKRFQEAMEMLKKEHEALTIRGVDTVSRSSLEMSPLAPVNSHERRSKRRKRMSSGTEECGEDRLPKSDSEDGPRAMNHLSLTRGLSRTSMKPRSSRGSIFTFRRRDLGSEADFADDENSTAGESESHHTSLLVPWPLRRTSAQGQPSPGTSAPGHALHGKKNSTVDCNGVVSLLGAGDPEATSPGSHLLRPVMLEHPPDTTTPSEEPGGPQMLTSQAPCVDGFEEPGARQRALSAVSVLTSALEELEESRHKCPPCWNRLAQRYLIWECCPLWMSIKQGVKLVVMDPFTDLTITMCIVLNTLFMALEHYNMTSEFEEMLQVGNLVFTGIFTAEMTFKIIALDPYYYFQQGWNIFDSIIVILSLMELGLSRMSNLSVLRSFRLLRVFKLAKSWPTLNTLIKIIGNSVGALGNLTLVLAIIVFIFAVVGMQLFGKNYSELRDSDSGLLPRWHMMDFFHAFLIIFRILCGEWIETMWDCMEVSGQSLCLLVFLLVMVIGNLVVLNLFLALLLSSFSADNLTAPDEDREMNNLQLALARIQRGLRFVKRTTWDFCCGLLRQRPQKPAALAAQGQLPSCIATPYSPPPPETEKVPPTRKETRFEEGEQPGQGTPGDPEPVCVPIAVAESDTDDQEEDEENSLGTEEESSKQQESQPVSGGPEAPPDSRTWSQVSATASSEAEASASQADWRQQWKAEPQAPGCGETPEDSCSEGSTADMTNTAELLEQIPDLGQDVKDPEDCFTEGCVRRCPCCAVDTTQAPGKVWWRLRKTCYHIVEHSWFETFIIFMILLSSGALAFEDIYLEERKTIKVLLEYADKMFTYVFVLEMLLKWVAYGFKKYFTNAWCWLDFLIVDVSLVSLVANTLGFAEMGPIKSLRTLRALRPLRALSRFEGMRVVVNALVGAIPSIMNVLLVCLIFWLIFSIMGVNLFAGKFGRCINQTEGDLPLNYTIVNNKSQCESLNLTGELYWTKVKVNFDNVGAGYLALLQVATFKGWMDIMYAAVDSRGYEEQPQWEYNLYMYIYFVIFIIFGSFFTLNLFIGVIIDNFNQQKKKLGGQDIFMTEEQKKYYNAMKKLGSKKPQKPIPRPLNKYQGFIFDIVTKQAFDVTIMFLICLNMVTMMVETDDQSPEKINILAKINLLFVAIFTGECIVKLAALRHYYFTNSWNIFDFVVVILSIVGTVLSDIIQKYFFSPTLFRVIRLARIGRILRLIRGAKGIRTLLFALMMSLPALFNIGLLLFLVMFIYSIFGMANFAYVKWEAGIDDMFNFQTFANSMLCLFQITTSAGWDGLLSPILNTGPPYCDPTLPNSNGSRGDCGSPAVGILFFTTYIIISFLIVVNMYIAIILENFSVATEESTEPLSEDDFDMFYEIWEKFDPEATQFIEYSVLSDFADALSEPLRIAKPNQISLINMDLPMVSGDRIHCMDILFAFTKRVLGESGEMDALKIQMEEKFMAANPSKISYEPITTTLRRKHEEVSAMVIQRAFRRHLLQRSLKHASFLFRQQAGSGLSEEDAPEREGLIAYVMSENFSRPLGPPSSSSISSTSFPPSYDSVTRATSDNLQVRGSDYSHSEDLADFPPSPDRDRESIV

As for APWHLSSQYSRT [CTP], the “Estimated IC50” value in data set [1] is on record as “N/C (key: N/C: Not calculable, inhibition >25% was not observed.)”; in data set [4], “N/C (Not calculable, inhibition >25% was not observed.)”; in data set [5] it was “N/C (Not calculable, inhibition >25% was not observed.)”; in data set [6], “N/C (Not calculable, inhibition >25% was not observed.)”. Further, in data set [2] (agonist (opener)), the EC50 is greater than 30 µM. For the same sequence, the IC50 in data set [2] (antagonist (blocker)) is greater than 30 µM; in data set [3] (human, blocker, FLIPR Tetra, read-out: RC50 (the source's name)), greater than 30 µM. Besides, the blocking or activation entry in data set [3] (SAFETYscan ion channel assay) is given as “no significant blocking or activation”.
